{"source": "patent US20070054887A1", "about": "“Methods for treating bladder dysfunction” (BioXell S.p.A, priority 2003, published 2007)", "key": {"[1]": {"test_system": "rats with CYP-induced cystitis", "test": "cyclophosphamide (CYP) induced chronic cystitis in rats: conscious cystometry", "assay_type": "in vivo, Wistar rats", "conditions": "30 and 75 ug/kg, control v Comp A"}, "[2]": {"test_system": "human bladder cells", "test": "inhibition of basal human bladder cell growth", "assay_type": "cell-based", "conditions": "Homo sapiens"}, "[3]": {"test_system": "desmin", "test": "desmin gene and protein expression in serum-starved hBC", "assay_type": "cell-based, human", "conditions": "10 nM", "procedure": "To detect desmin both at gene or protein level hBC cells were seeded in their growth medium onto 10 mm diameter culture dishes or onto sterile glass slides (about 10^4 cells/ml), for mRNA or immunocytochemical analysis, respectively. hBC cells at about 30% confluency, after overnight starvation in serum-free medium were incubated in phenol red- and serum-free medium containing 0.1% BSA with or without Compound A (10^−8 M) for 2, 4, 8 and 12 days, and the medium was changed every 2 days. Cells were harvested for mRNA or protein analysis by Taqman or Western blot analysis, respectively, and the slides were processed for specific protein immunocytochemical detection Quantitative analysis using real-time RT-PCR of desmin mRNA expression in serum-starved hBC treated with Compound A (10 nM, grey columns) was examined at different time points (2-12 days). Results are derived from five different experiments from three distinct hBC preparations and are expressed as fold increase compared to time zero. *P≦0.01 or °P=0.04 vs. control, open columns and are shown in FIG. 8.\nWestern blot detection of desmin in hBC was conducted as follows: thirty μg of proteins were separated by 10% SDS-PAGE, transferred onto nitrocellulose membrane, and probed with anti-desmin antibody (1:1000). A band of about 58 kDa was detected in each sample of hBC. […]"}, "[4]": {"test": "maximum tolerated dose (MTD) in rats", "assay_type": "in vivo", "conditions": "rat, in vivo, read-out: MTD", "from_the_text": "The maximum tolerated dose (MTD) in rats is also listed for each compound."}, "[5]": {"test_system": "bcl-2", "test": "Bcl-2 protein expression in hBC by immunocytochemistry", "assay_type": "cell-based, human", "conditions": "Compound A 10 nM, alone and in the presence of KGF (10 ng/ml) or testosterone (10 nM); FIG. 6", "procedure": "After incubation with the indicated stimuli, slides were washed twice with PBS pH 7.4 and fixed in 3.7% paraformaldehyde in PBS for 15 min at room temperature, followed by permeabilization in 3.7% paraformaldehyde in PBS, containing 0.1% Triton X-100 for 15 min at room temperature. Anti-Bcl-2 mAb (1:40) diluted in PBS containing 2% BSA was added to the slides and incubated overnight at 4° C. Slides were washed three times (5 min) in PBS and incubated 45 min at room temperature with 2% BSA-PBS, containing the secondary antibody (dilution 1:1000). After three washes in PBS, the slides were examined with a phase contrast microscope (Nikon mocrophot-FX microscopes; Nikon, Kogaku, Tokyo, Japan). Slides lacking the primary antibody or stained with the corresponding non-immune serum served as controls."}, "[6]": {"test_system": "bladder strips", "test": "contractile properties of isolated bladder strips from BOO model rats", "design": "species or system Sprague-Dawley rats", "conditions": "in vitro test", "procedure": "After completion of the cystometries, the rats were sacrified by carbon monoxide asphyxiation followed by exsanguination. The abdomen was accessed through a lower midline incision whereafter the symphysis was opened. The bladder was carefully dissected free, and immediately placed in chilled Krebs solution, and strip preparations were dissected.\nThe bladder and urethra were separated at the level of the bladder neck, and semicircular strips were prepared from the middle third of the detrusor (1×2×5 mm). All preparations were used immediately after removal.\nThe strips were transferred to 5 ml tissue baths containing Krebs solution. The Krebs solution was maintained at 37° C. and bubbled continuously with a mixture of 95% O2 and 5% CO2, resulting in a pH of 7.4. The strips were suspended between two L-shaped hooks by means of silk ligatures. One hook was connected to a movable unit allowing adjustment of passive tension, and the other to a Grass FT03C (Grass Instruments Co, MA, USA) force transducer. Isometric tension was recorded using a Grass polygraph (7D). After mounting, the strips were stretched to a passive tension of 4 mN (the same tension for all preparations) and allowed to equilibrate for 45-60 min before further experiments were performed.\nElectrical field stimulation (EFS) was accomplished by means of two platinum electrodes placed on either side of the preparations, and was performed using a Grass S48 or S88 stimulator, delivering single square wave pulses at selected frequencies. The train duration was 5 s, the pulse duration 0.8 ms, and the stimulation interval 2 min. The polarity of the electrodes was shifted after each pulse by means of a polarity changing unit.\nEach experiment was started by exposing the preparations to a high K^+ (124 mM) Krebs solution until two reproducible contractions are obtained. Then the following experiments were carried out:\na) Electrical stimulation of nerves was performed and frequency-response relations obtained, in the presence and absence of atropine.\nb) Concentration-response curves were constructed for carbachol and ATP […]"}, "[7]": {"test_system": "vimentin", "test": "vimentin gene and protein expression in serum-starved hBC", "assay_type": "cell-based, human", "conditions": "10 nM, at any time point tested; FIG. 13", "procedure": "Vimentin was detected (mRNA and protein) as per the method for desmin described in Example 1B. Vimentin is a fibroblastic cell marker. Quantitative analysis using real-time RT-PCR of vimentin mRNA expression in serum-starved hBC treated with Compound A (10 nM) was examined at different time points (2-12 days). Results are derived from five different experiments from three distinct hBC preparations and are expressed as fold increase compared to time zero. Control, open columns; Compound A, grey columns.\nWestern blot detection of vimentin in hBC was performed as follows: Thirty ug of proteins were separated by 10% SDS-PAGE, transferred onto nitrocellulose membrane, and probed with anti-vimentin antibody (1:1000). A band of about 61 kDa was detected in each sample of hBC. […] Results are representative of three independent experiments performed using separate hBC preparations.\nImmunocytochemical detection of vimentin in hBC was conducted as follows: Cells were seeded onto sterile glasses, treated with Compound A (10 nM) and processed at the indicated time points with an anti-vimentin antibody (1:1000). […] Quantification of three separate experiments from three distinct preparations of hBC is shown in FIG. 15 (control, open columns; Compound A, grey columns). […]"}}, "note": "pIC50: −log10 of the molar value.", "data": [{"smiles": "C=C1/C(=C\\C=C2/CCC[C@]3(C)C([C@@H](C)C/C=C/C(O)(CC)CC)=CC[C@@H]23)C[C@@H](O)C[C@@H]1F", "note": "[Compound A, 1-alpha-fluoro-25-hydroxy-16,23E-diene-26,27-bishomo-20-epi-cholecalciferol]", "values": [{"measurement": "bladder capacity", "setting": "[1]; FIG. 23", "value": "increase"}, {"measurement": "non-voiding bladder contractions", "setting": "[1]; FIG. 24", "value": "decrease"}, {"measurement": "pIC50", "setting": "[2]", "value": 11.20}, {"measurement": "desmin protein expression (Western blot)", "setting": "[3]; at any time point tested (2-12 days), FIG. 9", "value": "decreased"}, {"measurement": "serum starvation-induced progressive increase in desmin expression", "setting": "[3]; mRNA and protein, FIGS. 8-11", "value": "almost completely counteracted"}, {"measurement": "MTD", "setting": "[4]", "value": 0.1, "unit": "mg/kg"}, {"measurement": "bcl-2 expression (percentage of bcl-2 stained cells)", "setting": "[5]", "value": "significantly inhibits"}, {"measurement": "response to carbachol of bladder strips", "setting": "[6]", "value": "beneficial effect"}, {"measurement": "response to EFS of bladder strips", "setting": "[6]; electrical field stimulation, FIG. 21", "value": "beneficial effect"}, {"measurement": "K response of bladder strips", "setting": "[6]; strips from treated rats, high K+ (124 mM)", "value": "beneficial effect"}, {"measurement": "vimentin protein expression (Western blot)", "setting": "[7]", "value": "failed to affect"}]}]}
